Measured values taken from patent publication US20220000762A1, “COMPOSITIONS FOR TREATING OXIDATIVE STRESS-ASSOCIATED SKIN DISEASES AND SKIN AGEING AND DIAGNOSIS OF OXIDATIVE STRESS-ASSOCIATED SKIN DISEASES” (priority 2019, published 2022).

Assay: ABTS radical cation assay
Format: biochemical
Settings: RoxP peptides, ABTS assay (Example 12), increased with concentration
Protocol: FIG. 4: RoxP antioxidant activity under adverse conditions. The ability of RoxP to reduce ABTS radical cations, denoted by a decrease in absorbance at 734 nm, was tested in multiple settings. Different concentrations of recombinant RoxP (rRoxP) (0.2-3.2 μM) in sodium phosphate buffer (20 mM, pH 7.4) (A), rRoxP (2.7 μM) incubated with salt solutions (B), pre-heated rRoxP (2.7 μM) incubated for 20 min in temperatures ranging from RT to 98° C. and allowed to cool down to ambient temperature prior to activity measurements (C), or rRoxP (2 μM) stored at room temperature for up to 2 weeks (D) were added to a solution of pre-formed ABTS radicals and the absorbance recorded after 30 sec.
The reduction of pre-formed ABTS radical cations in the presence of RoxP was analysed using a spectrophotometric assay previously described by Re et al. (1999 Free Radic Biol Med 26:1231-1237). 2,2′-azinobis(3-ethylbenzothiazoline-6-sulfonic acid) diammonium salt (ABTS) (Sigma-Aldrich) was initially dissolved in ddH2O to a concentration of […]. Potassium persulfate (Merck KGaA, Darmstadt, Germany) was subsequently added to a final concentration of 2.45 mM and the resulting solution kept dark and incubated overnight at RT. Formed ABTS radicals were diluted with PBS (pH 7.4) until reaching an absorbance of approximately 0.7 at 734 nm. Antioxidants (1.7 μM) were added (1:9 v/v) and the absorbance spectrum 500 to 900 nm recorded after 30 sec.

Sequence	antioxidant activity
RTLSYCAYPHYVN (Cutibacterium acnes) [RoxP-Peptide 2]	display antioxidant activity
VRADGYQESMVTRVLDDK (Cutibacterium acnes) [RoxP-Peptide 1]	display antioxidant activity
